Measured values: US20250230193A1, “CYCLIC COMPOUND HAVING SELECTIVE KRAS INHIBITORY EFFECT ON HRAS AND NRAS” (CHUGAI SEIYAKU KABUSHIKI KAISHA, priority 2022, published 2025)
Like-named read-outs stand apart in the source and are kept apart here. Values belong to the compound of their own block, whether it stands above or below them.

Experiments:
[1] = target: GDP-bound NRAS wild-type protein (Homo sapiens, UniProt P01111); experiment: Binding to NRAS by surface plasmon resonance (SPR), Single Cycle Kinetics; settings: SPR; for NRAS/KRAS (ratio of KD value for NRAS to KD value for KRAS) / NRAS/KRAS (ratio of KD value with respect to NRAS to KD value with respect to KRAS): GDP-bound NRAS wild-type vs GDP-bound KRAS wild-type
[2] = target: GDP-bound HRAS wild-type protein (Homo sapiens, UniProt P01112); experiment: Binding to HRAS by surface plasmon resonance (SPR), Single Cycle Kinetics; settings: SPR; for HRAS/KRAS (ratio of KD value for HRAS to KD value for KRAS) / HRAS/KRAS (ratio of KD value with respect to HRAS to KD value with respect to KRAS): GDP-bound HRAS wild-type vs GDP-bound KRAS wild-type
[3] = tested on: human lung cancer strain NCI-H441
[4] = target: GDP-bound KRAS wild-type protein (Homo sapiens, UniProt P01116); experiment: Binding to KRAS by surface plasmon resonance (SPR), Single Cycle Kinetics; settings: SPR, Single Cycle Kinetics; GDP-bound KRAS wild-type protein

Sequence of GDP-bound NRAS wild-type protein (P01111 whole entry): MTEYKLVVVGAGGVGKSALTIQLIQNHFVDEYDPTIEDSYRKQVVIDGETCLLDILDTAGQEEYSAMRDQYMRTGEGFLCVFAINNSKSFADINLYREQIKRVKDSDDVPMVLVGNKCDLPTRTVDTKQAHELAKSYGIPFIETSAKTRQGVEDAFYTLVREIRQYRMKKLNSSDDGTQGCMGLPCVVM
Sequence of GDP-bound HRAS wild-type protein (P01112 whole entry): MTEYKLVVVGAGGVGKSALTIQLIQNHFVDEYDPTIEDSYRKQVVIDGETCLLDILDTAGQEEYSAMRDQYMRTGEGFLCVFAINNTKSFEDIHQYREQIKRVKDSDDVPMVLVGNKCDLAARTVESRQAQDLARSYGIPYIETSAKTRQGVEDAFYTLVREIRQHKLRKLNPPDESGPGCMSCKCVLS

Structure (SMILES): CCC(CC)[C@H]1C(=O)N(C)[C@H](C(=O)N2CCCCC2)CC(=O)N(C)[C@H]2CCC/C=C/c3ccc(cc3)C[C@@H](C(=O)N(C)CC(=O)N[C@@H](CCc3ccc(Cl)c(Cl)c3)C(=O)N3CCC[C@H]3C(=O)NC3(CC(C)(C)C3)C(=O)N1C)N1CC/C=C\C[C@@H](C1=O)N(C)C(=O)CN(C)C(=O)[C@H]([C@@H](C)CC)NC2=O [PP3055]
NRAS/KRAS (ratio of KD value with respect to GDP-bound NRAS wild-type protein to KD value with respect to KRAS) ([1]; GDP-bound wild-type proteins): AA (a compound having 20 or more is denoted as AA) | HRAS/KRAS (ratio of KD value with respect to GDP-bound HRAS wild-type protein to KD value with respect to KRAS) ([2]; GDP-bound wild-type proteins): A (a compound having 10 or more and less than 20 is denoted as A) | IC50 ([3]; read-out: NCI-H441 IC50, NCI-H441 cells, 4 days, CellTiter-Glo): 69.2 nM

IC50 [3]: 6.7 nM
Structure (SMILES): CC[C@H](C)[C@@H]1NC(=O)[C@H](CC(C)C)N(C)C(=O)C[C@@H](C(=O)N(C)C)N(C)C(=O)[C@H](C2CCCC2)N(C)C(=O)C2(CC(C)(C)C2)NC(=O)[C@@H]2C[C@H](C)CN2C(=O)[C@H](CCc2ccc(C(F)(F)F)c(OC)c2)NC(=O)CN(C)C(=O)[C@H](Cc2ccc(C)cc2)N2CC/C=C\C[C@@H](C2=O)N(C)C(=O)CN(C)C1=O [PP1905]
NRAS/KRAS (ratio of KD value for NRAS to KD value for KRAS) [1]: A (a compound having 10 or more and less than 20 is denoted as A) | HRAS/KRAS (ratio of KD value for HRAS to KD value for KRAS) [2]: A (a compound having 10 or more and less than 20 is denoted as A)

Kd [4]: 0.19 nM
Structure (SMILES): CCO[C@@H]1C[C@H]2C(=O)NC3(CCC3)C(=O)N(C)[C@@H](C3CCCC3)C(=O)N(C)[C@H](C(=O)N3CCOCC3)CC(=O)N(C)[C@@H](Cc3ccccc3)C(=O)N[C@@H]([C@@H](C)CC)C(=O)N(C)CC(=O)N(C)[C@H]3CCCCCN(C3=O)[C@@H](Cc3ccc(F)cc3)C(=O)N(C)CC(=O)N[C@@H](CCc3cc(F)c(C(F)(F)F)c(F)c3)C(=O)N2C1 [PP1181]
NRAS/KRAS (ratio of KD value with respect to NRAS to KD value with respect to KRAS) [1]: B (a compound having 3 or more and less than 10 is denoted as B) | HRAS/KRAS (ratio of KD value with respect to HRAS to KD value with respect to KRAS) [2]: B (a compound having 3 or more and less than 10 is denoted as B)

IC50 [3]: 79.1 nM
Structure (SMILES): CC[C@H](C)C1NC(=O)[C@H](CC(C)C)N(C)C(=O)C[C@@H](C(=O)N(C)C)N(C)C(=O)[C@H](C2CCCC2)N(C)C(=O)C2(CCCC2)NC(=O)C2CCCN2C(=O)[C@@H](CCc2ccc(C(F)(F)F)c(Cl)c2)NC(=O)CN(C)C(=O)[C@@H](Cc2ccc(C)cc2)N2CC/C=C\CCN(CC2=O)C(=O)CN(C)C1=O (stereo partly drawn) [PP0618]
NRAS/KRAS (ratio of KD value with respect to GDP-bound NRAS wild-type protein to KD value with respect to KRAS) [1]: C (A compound having a KD ratio of 0.1 or more and less than 3 is denoted as C) | HRAS/KRAS (ratio of KD value with respect to GDP-bound HRAS wild-type protein to KD value with respect to KRAS) [2]: C (A compound having a KD ratio of 0.1 or more and less than 3 is denoted as C)

Kd [4]: 1.1 nM
Structure (SMILES): CCCN1C(=O)CN(C)C(=O)CN(C)C(=O)[C@H]([C@@H](C)CC)NC(=O)[C@@H]2CCCCCCC[C@@H](NC(=O)[C@@H]3C[C@@H](OCC)CN3C(=O)[C@H](CCc3cc(F)c(C(F)(F)F)c(F)c3)NC(=O)CN(C)C(=O)[C@@H]1Cc1ccc(C(F)(F)F)cc1)C(=O)N(C)[C@@H](C1CCCC1)C(=O)N(C)[C@H](C(=O)N(C)C)CC(=O)N2C [PP0925]
NRAS/KRAS (ratio of KD value with respect to NRAS to KD value with respect to KRAS) [1]: A (a compound having 10 or more and less than 20 is denoted as A) | HRAS/KRAS (ratio of KD value with respect to HRAS to KD value with respect to KRAS) [2]: B (a compound having 3 or more and less than 10 is denoted as B)

IC50 [3]: 330 nM
Structure (SMILES): CC[C@H](C)[C@@H]1NC(=O)[C@H](CC(C)C)N(C)C(=O)C[C@@H](C(=O)N(C)C)N(C)C(=O)[C@H](C2CCCC2)N(C)C(=O)C2(CCCC2)NC(=O)C2CCCN2C(=O)[C@H](CCc2ccc(C(F)(F)F)c(Cl)c2)NC(=O)CN(C)C(=O)[C@H](Cc2ccc(C(F)(F)F)cc2)N2CC/C=C\COC[C@@H](C2=O)N(C)C(=O)CN(C)C1=O (stereo partly drawn) [PP0622]
NRAS/KRAS (ratio of KD value with respect to GDP-bound NRAS wild-type protein to KD value with respect to KRAS) [1]: B (a compound having 3 or more and less than 10 is denoted as B) | HRAS/KRAS (ratio of KD value with respect to GDP-bound HRAS wild-type protein to KD value with respect to KRAS) [2]: B (a compound having 3 or more and less than 10 is denoted as B)

IC50 [3]: 15.3 nM
Structure (SMILES): CC[C@H](C)[C@@H]1NC(=O)[C@H](CC(C)C)N(C)C(=O)C[C@@H](C(=O)N(C)CC)N(C)C(=O)[C@H](C2CCCC2)N(C)C(=O)C2(CC(C)(C)C2)NC(=O)[C@@H]2C[C@@H](C)CN2C(=O)[C@H](CCc2ccc(C(F)(F)F)c(OC)c2)NC(=O)CN(C)C(=O)[C@H](Cc2ccc(C)cc2)N2CC/C=C\C[C@@H](C2=O)N(C)C(=O)CN(C)C1=O [PP1909]
NRAS/KRAS (ratio of KD value for NRAS to KD value for KRAS) [1]: A (a compound having 10 or more and less than 20 is denoted as A) | HRAS/KRAS (ratio of KD value for HRAS to KD value for KRAS) [2]: B (a compound having 3 or more and less than 10 is denoted as B)
